Earlier results on three molecules are cited in patent publication US20120043242A1, “Medicinal cannabis fatty foodstuff” (priority 2010, published 2012).

Where two headings read alike, the source gives them in different places.

Data set [1] deals with healthy individuals. As to conditions: healthy individuals / humans.
For data set [2], the system named is people who use cannabis. As to conditions: compared with the no cannabinoid and the TCH+CBD groups.

For the molecule `CCCCCc1cc2c(c(O)c1C(=O)O)[C@@H]1C=C(C)CC[C@H]1C(C)(C)O2` [THCA-A, tetrahydrocannabinol carboxylic acid], the “decarboxylation of concentrated THCA-A in solution into Δ^9-THC” value (“decarboxylation … in solution into Δ^9-THC” below) (120 degrees C.) is recorded as “Partial decarboxylation”, the “decarboxylation … in solution into Δ^9-THC” value (140 degrees C.) was “Significant decarboxylation” and the “decarboxylation … in solution into Δ^9-THC” value (160 degrees C.) is on record as “Nearly complete decarboxylation”.
Regarding `CCCCCc1cc(O)c2c(c1)OC(C)(C)[C@@H]1CCC(C)=C[C@@H]21` [Δ^9-THC, Tetrahydrocannabinol], the “anxiety and psychotic symptoms” value in data set [1] is “elevate levels of anxiety and psychotic symptoms”. Moreover, the positive schizophrenia-like symptoms entry in data set [2] was “higher levels”. Besides, the “degradation of Δ^9-THC into cannabinol and dihydrocannabinol” value (160 degrees C.) is reported as “some degradation”; the “degradation of Δ^9-THC into cannabinol and dihydrocannabinol” value (180 degrees C.) is given as “A significant percentage”.
For the molecule `C=C(C)[C@@H]1CCC(C)=C[C@H]1c1c(O)cc(CCCCC)cc1O` [CBD, cannabidiol], the “anxiety and psychotic symptoms” value in data set [1] was “anxiolytic and to have antipsychotic properties”.
